Source: PMC10823514, “Target Identification of a Class of Pyrazolone Protein Aggregation Inhibitor Therapeutics for Amyotrophic Lateral Sclerosis” (ACS Central Science, 2023)

Biological target: T1, 14-3-3-E (Rattus norvegicus, UniProt P62260)
T1 construct: isothermal dose–response (ITDR) CETSA curve of 14-3-3-E at 63 °C (B) in PC12^G93A cell lysate; endogenous in cells; host or cells: PC12-SOD1^G93A YFP cell lysate (freeze/thaw)
T1 sequence (P62260 1-255): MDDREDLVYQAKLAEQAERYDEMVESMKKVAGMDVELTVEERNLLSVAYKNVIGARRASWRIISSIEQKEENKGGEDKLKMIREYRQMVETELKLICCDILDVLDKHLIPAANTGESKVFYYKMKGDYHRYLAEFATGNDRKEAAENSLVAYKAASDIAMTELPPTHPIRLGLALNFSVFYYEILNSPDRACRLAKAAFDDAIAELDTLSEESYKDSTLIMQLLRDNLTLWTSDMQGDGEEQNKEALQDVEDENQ
Experiment: Cellular thermal shift assay (CETSA) in PC12^G93A cell lysate
Format: binding
Conditions: n = 3
Experimental: Before the experiments were initiated, PC12-SOD1^G93A YFP cells were maintained in DMEM high-glucose media supplemented with 10% horse serum, 5% Tet-approved FBS, 1% Pen-strep, 1X L-glutamine, 200 μg/mL hygromycin, and 100 μg/mL G418. On the day preceding the experiments, the cells were plated onto two separate 10 cm dishes at a concentration of 10 × 10^6 cells per 10 mL of the supplemented media. They were then incubated overnight at 37 °C in a CO2 incubator (5% CO2) until they achieved 90–95% confluency.
The cell medium was subsequently removed, and the cells were rinsed with 1X PBS before being detached using 1 mL of 1X trypsin. To this, 5 mL of 1X PBS solution was added, and the cells were then resuspended, transferred to two separate 15 mL conical tubes, and centrifuged at 1100 rpm for 3 min. The supernatant was discarded, and the cells were resuspended in 1 mL of 1X PBS containing a […] (EDTA-free) (Sigma-Aldrich, 1:100 v/v). […]
SDS PAGE was conducted using a 15-well Novex Bis-Tris 4–12% prepacked gel and 1X MES-SDS gel running buffer (comprising 50 mM MES, 50 mM Tris, 1 mM EDTA, and 0.1% SDS) at a constant voltage of […] over a duration of 2 h. […] These raw immunoblot images were analyzed by using ImageJ software. Data (expressed as relative band intensity %) were normalized relative to the samples that were incubated at the lowest temperature. […]

With O=c1cc(COc2cc(Cl)cc(Cl)c2)[nH][nH]1 [P2] the “CETSA melting curve: 14-3-3-E in the soluble fraction versus DMSO control” value (500 μM P2, cell lysate, difference between 60 and 64 °C, maximum at 63 °C) was “markedly reduced the presence of 14-3-3-E in the soluble fraction” and the “ITDR CETSA: relative band intensity of 14-3-3-E in the soluble fraction” value (63 °C, increasing concentrations, cell lysate) was “clear decrease in the relative band intensity of 14-3-3-E”.
